pEC50, pIC50: −log10 of the molar value.
Tests used:
EP2 = EP2 (Homo sapiens, UniProt P43116); assay: EP2 cAMP EC50 (Table 1); type: cell-based
[1] = target: T1, prostaglandin E2 type 2 (EP2) receptors (Homo sapiens, UniProt P43116); assay: Assay for binding to prostaglandin E2 receptors (3H-prostaglandin E2 displacement, membranes of transfected cells); details: displacement of 3H-prostaglandin E2
T1 construct: expressed in transfected cells
Description: All operations are performed at 4° C. […] These are lysed by sonification with a Branson Sonifier (Model #250, Branson Ultrasonics Corporation, Danbury, Conn.) in 2 fifteen second bursts. Unlysed cells and debris are removed by centrifugation at 100×g for 10 min. Membranes are then harvested by centrifugation at 45,000×g for 30 minutes. Pelleted membranes are resuspended to 3-10 mg protein per ml, protein concentration being determined according to the method of Bradford [Bradford, M., Anal. Biochem., 72, 248 (1976)]. Resuspended membranes are then stored frozen at −80° C. until use.
Frozen membranes as prepared are thawed and diluted to 1 mg protein per ml in Buffer A. One volume of membrane preparation is combined with 0.05 volume test compound or buffer and one volume of 3 nM 3H-prostaglandin E2 (#TRK 431, Amersham, Arlington Heights, Ill.) in Buffer A. The mixture (205 μL total volume) is incubated for 1 hour at 25° C. The membranes are then recovered by filtration through type GF/C glass fiber filters (#1 205401, Wallac, Gaithersburg, Md.) using a Tomtec harvester (Model Mach II/96, Tomtec, Orange, Conn.). The membranes with bound 3H-prostaglandin E2 are trapped by the filter, the buffer and unbound 3H-prostaglandin E2 pass through the filter into waste. Each sample is then washed 3 times with 3 ml of [50 mM Tris-HCl (pH 7.4), 10 mM MgCl2, 1 mM EDTA]. The filters are then dried by heating in a microwave oven. To determine the amount of 3H-prostaglandin bound to the membranes, the dried filters are placed into plastic bags with scintillation fluid and counted in a LKB 1205 Betaplate reader (Wallac, Gaithersburg, Md.). IC50s are determined from the concentration of test compound required to displace 50% of the specifically bound 3H-prostaglandin E2.

[2] = test system: ocular hypertensive non-human primates; assay: IOP change after topical application in ocular hypertensive non-human primates; type: in vivo; details: for change in vivo at 0.1 %: Primates, read-out: ΔΔEmax (%); for ΔΔEmax (mm Hg): dosed hypertensive eye vs vehicle
Description: Tables 2 and 3 describe the intraocular pressure (IOP) changes that were seen following topical application of EP2 agonists in ocular hypertensive non-human primates. Typically, compounds in suitable formulations were dosed topically and IOP was measured using tonometry. Changes in IOP between vehicle treatment followed by treatment with EP2 compounds were assessed over time in the dosed hypertensive eye. ΔΔ Emax reflects the difference in IOP from EP2 compound-treated eye over that seen for vehicle-treated eye at the timepoint wherein maximum IOP reduction for compound was seen. The percent ΔΔ Emax was the percentage change in IOP reduction conferred by compound over that for vehicle (set at 100%). Tmax represents the time point at which maximum IOP reduction of compound was observed. […] NS represents not significant. Table 2 compares acids of EP2 compound while Table 3 compares IOP response seen with esters of certain acids. Esters provide better corneal penetration and improved drug exposure in the anterior chamber compared to acids and are therefore dosed at ⅕th the dose for acids […].

[3] = topical, acid EP2 agonists, Conc 0.1 %, topical, vs vehicle (set at 100%)
[4] = acid EP2 agonists, Conc 0.1 %, topical
[5] = acid EP2 agonists, Conc 0.1 %, time point of maximum IOP reduction
[6] = acid EP2 agonists, Conc 0.1 %, topical, vs vehicle (set at 100%)
[7] = isopropylesters, OHT primates, time point of maximum IOP reduction

T1 sequence (P43116 whole entry): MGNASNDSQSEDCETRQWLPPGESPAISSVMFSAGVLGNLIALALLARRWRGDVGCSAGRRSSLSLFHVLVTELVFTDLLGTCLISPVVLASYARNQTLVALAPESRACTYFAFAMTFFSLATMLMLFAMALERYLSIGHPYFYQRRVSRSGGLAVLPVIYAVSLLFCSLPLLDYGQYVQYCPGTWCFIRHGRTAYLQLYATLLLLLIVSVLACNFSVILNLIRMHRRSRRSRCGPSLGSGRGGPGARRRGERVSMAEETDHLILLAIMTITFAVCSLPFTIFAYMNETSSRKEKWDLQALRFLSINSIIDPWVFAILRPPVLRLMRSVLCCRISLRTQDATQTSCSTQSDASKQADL
Chain of EP2 (P43116 whole entry): as above

Compound | pEC50 (EP2) | pIC50 [1] | ΔΔEmax (mm Hg) [2, 4] | Tmax [2, 5] [h] | ΔΔEmax (%) [2, 6] | other results
CC(C)(C)OC(=O)c1ccc(CCCN(CCCOc2cc(Cl)cc(Cl)c2)S(C)(=O)=O)s1 [Example 10] | 8.09 | 8.49 | – | – | – | –
CC(C)OC(=O)CCc1cccc(CN(Cc2ccc(-n3cccn3)cc2)S(=O)(=O)c2cccnc2)c1 [Example 20] | 7.29 | > 8.00 | – | – | – | –
CC(C)OC(=O)CCCCCCN(CCCc1cc(Cl)cc(Cl)c1)S(C)(=O)=O [Example 6] | 8.15 | 8.18 | – | – | – | –
CS(=O)(=O)N(CCCc1nc(C(=O)O)cs1)CCOc1cc(Cl)cc(Cl)c1 | – | – | −4.3 mm Hg | 2 | – | change in vivo at 0.1 % [2, 3]: -8%
CC(C)(C)OC(=O)CCc1cccc(CN(Cc2ccc(-c3cccnc3)cc2)S(=O)(=O)c2ccccc2)c1 [Example 4] | 8.27 | > 7.91 | – | – | – | –
CC(C)OC(=O)COc1cccc(CN(Cc2ccc(-n3cccn3)cc2)S(=O)(=O)c2ccccn2)c1 [Example 18] | 7.92 | > 8.00 | – | – | – | –
O=C(O)CCc1cccc(CN(Cc2ccc(-c3cccnc3)cc2)S(=O)(=O)c2ccccc2)c1 | – | – | −3.0 mm Hg | 4 | – | change in vivo at 0.1 % [2, 3]: -10%
CS(=O)(=O)N(CCCOc1cc(Cl)cc(Cl)c1)CCCc1ccc(C(=O)O)s1 | – | – | −4.4 mm Hg | 2 | – | change in vivo at 0.1 % [2, 3]: -11%
CC(C)OC(=O)CCc1cccc(CN(Cc2ccc(-c3ncccn3)cc2)S(=O)(=O)c2cccnc2)c1 [Example 13] | 8.51 | > 8.00 | – | – | – | –
O=C(O)COc1cccc(CN(Cc2ccc(-n3cccn3)cc2)S(=O)(=O)c2cccnc2)c1 [drawing 52] | – | – | −7.0 mm Hg | 4 | −21% | –
CC(C)OC(=O)CCc1cccc(CN(Cc2ccc(-c3cccnc3)cc2)S(=O)(=O)c2ccccc2)c1 [Example 8] | 8.27 | > 7.91 | – | – | – | –
CC(C)OC(=O)CCc1cccc(CN(Cc2ccc(-c3ncccn3)cc2)S(=O)(=O)c2nccs2)c1 [Example 26] | 8.19 | > 8.00 | – | – | – | –
Cn1cnc(S(=O)(=O)N(Cc2ccc(-c3nccs3)cc2)Cc2cccc(OCC(=O)O)c2)c1 | – | – | ns | – | ns | –
CC(C)OC(=O)c1ccc(CCCN(CCCOc2cc(Cl)cc(Cl)c2)S(C)(=O)=O)s1 [drawing 62] | – | – | – | – | – | ΔΔEmax (%) ([2]; isopropylesters, OHT primates, OHT eye): ns; ΔΔEmax (mmHg) ([2]; isopropylesters, OHT primates, OHT eye, 0.1 mg/ml topical): ns; Tmax (h) [2, 7]: ns
O=C(O)CCc1cccc(CN(Cc2ccc(-c3cncnc3)cc2)S(=O)(=O)c2ccccn2)c1 | – | – | ns | – | ns | –
O=C(O)COc1cccc(CN(Cc2ccc(-c3ncccn3)cc2)S(=O)(=O)c2ccccn2)c1 | – | – | ns | – | ns | –
O=C(O)COc1cccc(CN(Cc2ccc(-n3cccn3)cc2)S(=O)(=O)c2cccnc2)c1 [drawing 60] | – | – | −2.6 mm Hg | 4 | −6% | –
CC(C)OC(=O)c1csc(CCCN(CCOc2cc(Cl)cc(Cl)c2)S(C)(=O)=O)c1 | – | – | – | – | – | ΔΔEmax (mmHg) ([2]; isopropylesters, OHT primates, both eyes): −8 (both eyes) mmHg; Tmax [2, 7]: 4 to 6 h
O=C(O)CCCCCCC1C(=O)CC[C@@H]1CCc1cccc(C(F)(F)F)c1 (some centres unmarked) | – | – | −3.7 mm Hg | 6 | – | change in vivo at 0.1 % [2, 3]: -9%
O=C(O)CCc1cccc(CN(Cc2ccc(-c3cccnc3)cc2)S(=O)(=O)c2cccnc2)c1 | – | – | ns | – | ns | –

From patent US7622475B2, “EP2 agonists” (Pfizer Inc, priority 2006, dated 2009)
